Test results taken from ChEMBL document CHEMBL1127917, “The phosphonate analog of 5-methylthioribose 1--phosphate” (Bioorg Med Chem Lett, 1994).
Calls of active or inactive are those of the source. No cut-off for these calls is given here.

Test system: Klebsiella pneumoniae
Test: Tested for inhibition of oxygen uptake by the compound included in an extract of Klebsiella pneumoniae along with substrate 1 at the dose of 0.8 mM; No inhibition
Format: functional, organism-based

SMILES: CSCC1OC(CP(=O)(O)O)[C@H](O)[C@@H]1O (stereo partly specified)
- Activity: inactive
